Here are results for nine compounds from BindingDB's records for doi:10.1074/jbc.M809430200 (The Scripps Research Institute, 2009).

Experiment [1] addresses Mitogen-activated protein kinase 10 (Homo sapiens, UniProt P53779). Put plainly: Fluorescence Assay. As to conditions: pH 7; 22 °C. Here is the method:
(§1) Homogeneous time-resolved fluorescence assay is an enzyme inhibition studies that were performed in 384-well polystyrene homogeneous time-resolved fluorescence plates (grainier).

Experiment [2] concerns the target Mitogen-activated protein kinase 8 (Homo sapiens, UniProt P45983). Put plainly: Fluorescence Assay. As to conditions: pH 7; 22 °C. Here is the method:
as §1

For experiment [3], the target named is Mitogen-activated protein kinase 14 (p38α) (Homo sapiens) (UniProt Q16539). Put plainly: Homogeneous time-resolved fluorescence assay is an enzyme inhibition studies that were performed in 384-well polystyrene homogeneous time-resolved fluorescence plates (grainier). To be noted: pH 7.

Some results are limits rather than exact numbers.

Sequence of Mitogen-activated protein kinase 8 (P45983 whole entry): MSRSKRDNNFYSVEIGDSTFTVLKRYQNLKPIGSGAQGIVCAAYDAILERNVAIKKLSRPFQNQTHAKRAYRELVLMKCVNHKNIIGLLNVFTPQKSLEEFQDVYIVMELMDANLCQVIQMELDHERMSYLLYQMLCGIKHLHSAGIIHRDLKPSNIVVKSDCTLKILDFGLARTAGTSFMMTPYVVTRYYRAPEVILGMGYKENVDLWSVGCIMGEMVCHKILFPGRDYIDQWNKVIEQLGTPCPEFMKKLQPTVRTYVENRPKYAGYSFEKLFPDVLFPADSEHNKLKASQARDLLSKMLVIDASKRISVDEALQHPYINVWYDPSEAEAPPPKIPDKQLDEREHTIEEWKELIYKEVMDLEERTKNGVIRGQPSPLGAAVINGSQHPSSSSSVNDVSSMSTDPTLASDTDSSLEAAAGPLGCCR
Sequence of Mitogen-activated protein kinase 10 (P53779 whole entry): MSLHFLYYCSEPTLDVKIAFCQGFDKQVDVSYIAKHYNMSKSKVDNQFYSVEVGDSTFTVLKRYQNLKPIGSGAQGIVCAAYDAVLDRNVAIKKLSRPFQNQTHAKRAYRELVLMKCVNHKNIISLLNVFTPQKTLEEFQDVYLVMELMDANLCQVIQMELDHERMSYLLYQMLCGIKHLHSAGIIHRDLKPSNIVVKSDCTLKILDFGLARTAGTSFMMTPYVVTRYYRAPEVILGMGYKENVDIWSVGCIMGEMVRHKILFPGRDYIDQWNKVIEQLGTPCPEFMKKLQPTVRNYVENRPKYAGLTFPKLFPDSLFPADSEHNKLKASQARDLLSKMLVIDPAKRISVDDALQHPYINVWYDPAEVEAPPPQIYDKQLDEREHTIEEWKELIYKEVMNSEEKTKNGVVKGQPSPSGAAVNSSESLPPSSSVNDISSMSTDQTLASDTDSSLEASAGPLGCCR

As a reminder, the IC50 is the concentration at which inhibition is half-maximal. For `COc1cc(NC(=O)c2cccc(-n3cc(NC(=O)Nc4ccccc4)cn3)c2)cc(OC)c1OC` [Aminopyrazole inhibitor, 3451], the IC50 in experiment [1] worked out at 25 nM; in experiment [2] it was 400 nM; in experiment [3], 3700 nM.

For `COc1cc(NC(=O)c2cccc(-n3cc(NC(=O)Nc4ccccc4Cl)cn3)c2)cc(OC)c1OC` [Aminopyrazole inhibitor, 3528], the half-maximal inhibitory concentration (IC50) in experiment [1] is 23 nM; in experiment [2], 560 nM; in experiment [3], over 20000 nM.

For `COc1cc(NC(=O)c2cccc(-n3cc(NC(=O)Nc4cccc(C)c4)cn3)c2)cc(OC)c1OC` [Aminopyrazole inhibitor, 3576], the IC50 was 7 nM in experiment [1], 170 nM in experiment [2] and over 20000 nM in experiment [3].

In the case of `COc1cc(NC(=O)c2cccc(-n3cc(NC(=O)Nc4ccc(Cl)cc4)cn3)c2)cc(OC)c1OC` [Aminopyrazole inhibitor, 3583], the 50% inhibitory concentration (IC50) in experiment [1] was 480 nM.

On to `Cc1cccc(NC(=O)Nc2cnn(-c3cccc(C(=O)NCCN4CCOCC4)c3)c2)c1` [Aminopyrazole inhibitor, 4018], for which the IC50 in experiment [1] is 2100 nM; in experiment [2], over 20000 nM; in experiment [3], over 20000 nM.

For the compound `O=C(Nc1cnn(-c2cccc(C(=O)NCCCN3CCOCC3)c2)c1)Nc1ccccc1Cl` [Aminopyrazole inhibitor, 4276], the values for the IC50 in experiment [1] and in experiment [3] were 350 nM and over 20000 nM, respectively.

In the case of `Cc1cncc(NC(=O)c2cccc(-n3cc(NC(=O)Nc4ccccc4Cl)cn3)c2)c1` [Aminopyrazole inhibitor, 4326], the IC50 in experiment [1] was 55 nM; in experiment [2] it was 1400 nM; in experiment [3], over 20000 nM.

In the case of `Cc1cncc(NC(=O)c2cc(N(C)C)cc(-n3cc(NC(=O)Nc4ccccc4Cl)cn3)c2)c1` [Aminopyrazole inhibitor, 4642], the results for the 50% inhibitory concentration (IC50) in experiment [1], in experiment [2] and in experiment [3] were 2200 nM, over 20000 nM and over 20000 nM, respectively.

Take `Cc1cncc(NC(=O)c2cc(N3CCOCC3)cc(-n3cc(NC(=O)Nc4ccccc4Cl)cn3)c2)c1` [Aminopyrazole inhibitor, 4643]: the figures for the IC50 in experiment [1], in experiment [2] and in experiment [3] were 1500 nM, over 20000 nM and over 20000 nM, respectively.
